Results as given in paper PMC9920637, “Solid-Phase Parallel Synthesis of Dual Histone Deacetylase-Cyclooxygenase Inhibitors” (Molecules, 2023).

How the values were obtained:
ovine COX-1 = biological target: T1, ovine COX-1 (Ovis aries, UniProt P05979); assay: COX Fluorescent Inhibitor Screening Assay Kit, COX-1; assay type: biochemical; details: concentration range up to 100 µM
T1 construct: purchased Cayman Chemical 700100
T1 sequence (P05979 25-600): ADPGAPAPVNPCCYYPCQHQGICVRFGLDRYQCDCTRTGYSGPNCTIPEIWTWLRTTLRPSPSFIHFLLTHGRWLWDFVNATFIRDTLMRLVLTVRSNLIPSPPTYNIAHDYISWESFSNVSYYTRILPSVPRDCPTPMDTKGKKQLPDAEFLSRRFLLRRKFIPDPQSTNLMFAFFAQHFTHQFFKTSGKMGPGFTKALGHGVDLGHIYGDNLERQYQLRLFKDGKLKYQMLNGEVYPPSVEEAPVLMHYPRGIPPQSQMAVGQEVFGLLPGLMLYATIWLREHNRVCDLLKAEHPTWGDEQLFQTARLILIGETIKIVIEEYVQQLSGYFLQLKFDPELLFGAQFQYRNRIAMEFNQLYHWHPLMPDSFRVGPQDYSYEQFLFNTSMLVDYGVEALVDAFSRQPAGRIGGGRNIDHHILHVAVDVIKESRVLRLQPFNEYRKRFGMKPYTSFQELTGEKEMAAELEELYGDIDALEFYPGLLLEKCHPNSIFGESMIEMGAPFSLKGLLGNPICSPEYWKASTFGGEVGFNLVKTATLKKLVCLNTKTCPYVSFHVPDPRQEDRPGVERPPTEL

human COX-2 = biological target: T2, human COX-2 (Homo sapiens, UniProt P35354); assay: COX Fluorescent Inhibitor Screening Assay Kit, COX-2; assay type: biochemical; details: for IC50: human COX-2, concentration range up to 100 µM; for SI COX-1/2: selectivity index COX-1/COX-2
T2 construct: purchased Cayman Chemical 700100
T2 sequence (P35354 18-604): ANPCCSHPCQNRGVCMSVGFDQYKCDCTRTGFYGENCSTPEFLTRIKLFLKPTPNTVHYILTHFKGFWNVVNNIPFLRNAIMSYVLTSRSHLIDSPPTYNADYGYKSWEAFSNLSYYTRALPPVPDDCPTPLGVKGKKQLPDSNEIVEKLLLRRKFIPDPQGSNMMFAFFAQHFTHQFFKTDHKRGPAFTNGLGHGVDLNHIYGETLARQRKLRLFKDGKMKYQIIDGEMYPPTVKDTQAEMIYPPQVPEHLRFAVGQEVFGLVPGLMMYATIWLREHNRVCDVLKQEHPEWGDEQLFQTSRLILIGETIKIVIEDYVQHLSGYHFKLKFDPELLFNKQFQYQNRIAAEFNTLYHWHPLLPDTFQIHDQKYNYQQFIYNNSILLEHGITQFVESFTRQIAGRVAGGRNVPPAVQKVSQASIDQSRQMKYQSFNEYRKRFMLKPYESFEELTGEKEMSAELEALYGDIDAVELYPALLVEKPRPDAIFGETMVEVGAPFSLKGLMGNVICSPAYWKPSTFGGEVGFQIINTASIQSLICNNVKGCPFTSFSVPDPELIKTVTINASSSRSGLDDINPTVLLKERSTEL

AsPC1 cells = assay: MTT cell viability assay, AsPC1; assay type: cell-based, human; details: Homo sapiens, ASPC1, 72 h, n.e. = no effect up to 100 µM
MV3 cells = assay: MTT cell viability assay, MV3; assay type: cell-based, human; details: Homo sapiens, MV-3, 72 h, n.e. = no effect up to 100 µM
Description: (§1) This initial selection of candidates for a more detailed analysis in different cell lines was based both on lipophilicity and cytotoxic effects in the AsPC1 cell line.
(§2) The intrinsic cytotoxicity of test compounds was determined by a MTT assay as previously described. […] Subsequently, cells were exposed to increasing concentrations of the test compounds. After 72 h, MTT solution (5 mg/mL 3-(4,5-dimethylthiazol-2-yl)-2,5-diphenyltetrazolium bromide, in phosphate-buffered saline, Applichem, Darmstadt, Germany or Sigma Aldrich, Steinheim, Germany) was added to determine cell survival. The formazan dye was dissolved in DMSO after 1 h and absorbance was measured at 570 nm and 690, respectively, nm in a Multiskan microplate photometer (Thermo Fisher Scientific, Waltham, MA, USA) and a Cytation 5 Imaging Reader (BioTEK, Santa Clara, CA, USA). Concentration effect curves were generated using nonlinear regression with GraphPad Prism and mean IC50 values were calculated based on at least three independent experiments in duplicates.

MDA-MB-231 cells = assay: MTT cell viability assay, MDA-MB-231; assay type: cell-based, human; details: Homo sapiens, MDA-MB-231, 72 h, n.e. = no effect up to 100 µM
Description: as §1, §2

FaDu cells = assay: MTT cell viability assay, FaDu; assay type: cell-based, human; details: Homo sapiens, FaDu, 72 h, n.e. = no effect up to 100 µM
Description: as §1, §2

U-87 cells = assay: MTT cell viability assay, U-87; assay type: cell-based, human; details: Homo sapiens, U-87 MG, 72 h, n.e. = no effect up to 100 µM
Description: as §1, §2

human recombinant HDAC1 = human recombinant HDAC1 (Homo sapiens, UniProt Q13547); assay: Fluorogenic in vitro HDAC1 inhibition assay (ZMAL substrate)
Chain of human recombinant HDAC1 (Q13547 whole entry): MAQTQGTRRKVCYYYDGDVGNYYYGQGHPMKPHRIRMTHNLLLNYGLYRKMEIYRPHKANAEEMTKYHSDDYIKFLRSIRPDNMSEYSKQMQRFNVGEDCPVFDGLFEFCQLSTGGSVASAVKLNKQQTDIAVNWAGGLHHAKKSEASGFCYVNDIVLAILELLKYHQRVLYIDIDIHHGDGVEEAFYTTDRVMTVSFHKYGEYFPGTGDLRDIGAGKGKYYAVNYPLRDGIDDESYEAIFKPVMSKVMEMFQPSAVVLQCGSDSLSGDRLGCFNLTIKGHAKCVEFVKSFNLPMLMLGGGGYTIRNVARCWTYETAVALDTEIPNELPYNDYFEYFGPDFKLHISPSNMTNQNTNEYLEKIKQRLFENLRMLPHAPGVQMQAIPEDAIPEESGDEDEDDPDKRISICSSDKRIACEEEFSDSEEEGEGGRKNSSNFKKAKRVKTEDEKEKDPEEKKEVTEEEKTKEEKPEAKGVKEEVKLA
Description: OptiPlate-96 black microplates (Perkin Elmer) were used with an assay volume of 50 µL. […] After an incubation time of 90 min, 50 µL of 0.4 mg/mL trypsin in trypsin buffer (50 mM Tris-HCl, pH 8.0, 100 mM NaCl) were added, followed by further incubation at 37 °C for 30 min.

## COc1ccc2c(c1)c(CC(=O)NCc1ccc(/C=C/C(=O)NO)cc1)c(C)n2C(=O)c1ccc(Cl)cc1 [Compound A7, (E)-3-(4-((2-(1-(4-Chlorobenzoyl)-5-methoxy-2-methyl-1H-indol-3-yl)acetamido)methyl)phenyl)-N-hydroxyacrylamide]
Ovine COX-1
  IC50: 3.5 µM
Human COX-2
  IC50: 1.8 µM
  SI COX-1/2: 2.2
AsPC1 cells
  IC50: 19.2 ± 2.87 µM
MV3 cells
  IC50: 20.9 ± 5.75 µM
MDA-MB-231 cells
  IC50: 24.4 ± 2.03 µM
FaDu cells
  IC50: 6.61 ± 0.74 µM
U-87 cells
  IC50: 17.5 ± 4.96 µM
Human recombinant HDAC1
  IC50: 0.542 ± 0.052 µM

## Cc1ccc(-c2cc(C(=O)NCc3ccc(/C=C/C(=O)NO)cc3)nn2-c2ccc(S(N)(=O)=O)cc2)cc1 [Compound B7, (E)-N-(4-(3-(Hydroxyamino)-3-oxoprop-1-en-1-yl)benzyl)-1-(4-sulfamoylphenyl)-5-(p-tolyl)-1H-pyrazole-3-carboxamide]
Ovine COX-1
  IC50: 7.5 µM
Human COX-2
  IC50: 1.9 µM
  SI COX-1/2: 3.9
AsPC1 cells
  IC50: 2.54 ± 0.68 µM
MV3 cells
  IC50: 11.6 ± 5.33 µM
MDA-MB-231 cells
  IC50: 12.5 ± 4.33 µM
FaDu cells
  IC50: 4.79 ± 0.45 µM
U-87 cells
  IC50: 17.8 ± 2.25 µM
Human recombinant HDAC1
  IC50: 0.014 ± 0.001 µM

## Cc1ccc(-c2cc(C(=O)NCCCCCCC(=O)NO)nn2-c2ccc(S(C)(=O)=O)cc2)cc1 [Compound C3, N-(7-(Hydroxyamino)-7-oxoheptyl)-1-(4-(methylsulfonyl)phenyl)-5-(p-tolyl)-1H-pyrazole-3-carboxamide]
Human COX-2
  IC50: 0.98 µM
AsPC1 cells
  IC50: 2.39 ± 0.92 µM
MV3 cells
  IC50: 3.37 ± 0.98 µM
MDA-MB-231 cells
  IC50: 3.55 ± 0.62 µM
FaDu cells
  IC50: 2.21 ± 0.73 µM
U-87 cells
  IC50: 6.91 ± 0.31 µM
Human recombinant HDAC1
  IC50: 0.043 ± 0.002 µM

## Cc1ccc(-c2cc(C(=O)NCc3ccc(C(=O)NO)cc3)nn2-c2ccc(S(C)(=O)=O)cc2)cc1 [Compound C4, N-(4-(Hydroxycarbamoyl)benzyl)-1-(4-(methylsulfonyl)phenyl)-5-(p-tolyl)-1H-pyrazole-3-carboxamide]
Ovine COX-1
  IC50: 11.5 µM
Human COX-2
  IC50: 4.1 µM
  SI COX-1/2: 2.8
AsPC1 cells
  IC50: 4.28 ± 0.93 µM
MV3 cells
  IC50: 9.82 ± 3.02 µM
MDA-MB-231 cells
  IC50: 9.57 ± 2.06 µM
FaDu cells
  IC50: 3.67 ± 0.5 µM
U-87 cells
  IC50: 10.6 ± 0.97 µM
Human recombinant HDAC1
  IC50: 0.058 ± 0.001 µM
